Laboratory results published in US20190307741A1, “[…] PD1 AND/OR PDL1 INHIBITOR AS PHARMACEUTICAL COMBINATION” (priority 2016, published 2019).

Test system: orthotopic MBT-2 mouse bladder tumors
Experiment: Antitumour activity (survival) in C3H/HEJ mice bearing orthotopic MBT-2 mouse bladder tumors
Assay type: in vivo
Settings: female C3H/HeJ mice, vinflunine ditartrate 12 mg/kg IP (Q2D×3)×2W
Description: The antitumour activity of vinflunine alone or in combination with an anti-PD1 antibody was evaluated in C3H/HEJ mice bearing orthotopic MBT-2 mouse bladder tumors.
Vinflunine ditartrate is administered to mice at a concentration of 1.2 mg/ml in a saline buffer (0.9% NaCl).
The anti-PD1 antibody (clone: RMP1-14, catalog: BE0146, B/N: 5311-10/0914B, Bioxcell), is administered to mice at a concentration of 1 mg/ml in PBS. […] 2005 Aug. 1; 175(3):1586-92.
Vinflunine ditartrate has been injected at 12 mg/kg,
The anti-PD1 antibody has been injected at 10 mg/kg/inj.
Vinflunine ditartrate and the anti-PD1 antibody have been administered at a dose volume of 10 ml/kg/adm (i.e for one mouse weighing 20 g, 200 μl has been administered).
Vinflunine ditartrate has been injected intraperitoneally (IP) into the peritoneal cavity of mice.
The anti-PD-1 antibody has been injected intraperitoneally (IP) into the peritoneal cavity of mice. […]
Tumor cells have been e grown as monolayer at 37° C. in a humidified atmosphere (5% CO2, 95% air). […] The cells have been counted in a hemocytometer and their viability has been assessed by 0.25% trypan blue exclusion assay. […]
Antitumour activity of vinflunine ditartrate alone, anti-PD1 antibody alone or of the combination was evaluated against MBT-2 cells orthotopically implanted by instillation C3H/HEJ mice. […]

Question: Which results are given for “20′,20′-difluoro-3′,4′-dihydrovinorelbine [vinflunine]”?
Answer: ILS: Increase of Life Span (compared to vehicle) (%) (ILS=T/C−100 (median day of death treated/control), anti-PD1 10 mg/kg/inj IP TW×2): 46%; Survival gain (compared to vehicle) Median (anti-PD1 antibody 10 mg/kg/inj IP TW×2, treatment from D3, relative to vehicle): 10 days
